Consider four molecules from article PMC4467156, “A new chemical inhibitor of angiogenesis and tumorigenesis that targets the VEGF signaling pathway upstream of Ras” (Oncotarget, 2015).

One data set deals with HMEC-GFP cells. The data set can be described thus: Scratch wound closure assay, HMEC-GFP. In kind it is cell-based, human. The settings on record: Homo sapiens; wound closure after 24 h, 10% FCS, tested 3.125 μM to 100 μM. The text has this: In order to adapt the endothelial scratch wounding assay to the constraints of high throughput screening, we decided to use an endothelial cell line rather than primary cultures for the sake of reproducibility. Since angiogenesis is triggered by capillary endothelial cells, we selected the HMEC-1 cell line which consists of human dermal microvascular endothelial cells stably expressing SV40 […] antigen. We infected this cell line with GFP-encoding retroviral particles and selected one clone (thereafter named HMEC-GFP) that presented a high level of fluorescence and a strong proliferation rate (doubling time in the presence of serum: 22 h). We controlled that GFP expression was stable over at least 50 passages and that these cells still expressed endothelial markers such as VE-cadherin and CD31. In a standard assay, HMEC-GFP cells were grown until confluence in 96-well plates in the presence of serum, scratched with the multi-tip dispenser of the HTS automat, gently rinsed twice to eliminate detached cells and cell debris that could liberate inflammatory and potentially angiogenic cytokines, and incubated for 24 h in the presence of serum and the compounds to be tested. Each well was photographed at time 0 h (after wounding) and 24 h under a motorized epifluorescence microscope and the digitized images were analyzed using Image J to determine the percentage of wound closure (Figure 1A, 1B). Under our standard conditions, the closure rate was 72 ± 4% in the positive controls and 27 ± 4.% in the negative controls.
(§1) Confluent cell monolayers were wounded with a plastic pipet tip, washed gently with phosphate buffer saline (PBS) and treated with complete media containing molecules, as indicated. Cells were placed at 37°C into the incubator and photographed at indicated times. Quantitation of closure of the monolayer was performed using the NIH Image J program (http://rsbweb.nih.gov/ij/). Results are expressed as percentage of wound closure at t = 24 h as compared to the initial wound at t = 0 h.

The next data set in a line: Water solubility. In kind it is physicochemical.
The test system of the next data set is 3T3-GFP cells. The data set can be described thus: Scratch wound closure assay, 3T3-GFP. The following applies: wound closure after 24 h, 10% FCS, tested 3.125 μM to 100 μM. In kind it is cell-based.
Source text: Using this assay, we screened the academic library of the University of Grenoble, which is composed of 1360 original molecules. Setting the threshold of significant responses at 75% of the maximal inhibition, we identified 80 inhibitory molecules. At this stage, we reasoned that molecules that would affect the cytoskeleton dynamics or the adhesion properties of any cell type would be positive in this assay but would not represent good candidates for further development. We thus decided to perform a secondary counterscreen of the first 80 selected compounds on GFP-expressing 3T3 fibroblasts (3T3-GFP) using the same scratch assay. We then focused our interest on the 5 molecules that inhibited more strongly HMEC-GFP than 3T3-GFP wound healing. […] We synthesized a series of 30 analogs and tested them at various concentrations both on HMEC-GFP and 3T3-GFP cells. […] Dansyl and naphthalimide aromatic groups, found in COB223 and COB227 respectively, appeared very efficient. The presence of the diaminomethyl group on dansyl is critical for the activity of COB223 as shown by the lower efficiency of COB235 (IC50 is 8 times higher than that of COB223). COB223 and COB227 contain a tert-butyloxycarbonyl function (BOC group) as a second hydrophobic group. Replacement of BOC by an amino group decreased the efficiency and the specificity (compare 05-102-L-B09 vs 05-06-L-D03, or COB227 vs COB228).
as §1

A further data set has as its system LLC/2 tumor. The data set can be described thus: Mouse LLC/2 tumor model. The settings on record: mouse, in vivo. In kind it is in vivo. As for the experimental part:
We chose this model because of its rapid growth in syngenic mice and its strong dependence on angiogenesis. LLC/2 cells (10^6 in 50 μL medium) were subcutaneously injected into the right flank of […] mice. Seven days after tumor inoculation, mice were given an intraperitoneal (i.p.) injection of either solvent (1.7% DMSO) or COB223 every other day. Tumor size was measured with calipers, and the volume was calculated according to the formula (L*w^2)/2 where L and […] stand for length and width respectively. All mice were killed 21 days after tumor grafting.
Tumors collected after animal sacrifice were split into two parts and fixed either in 4% paraformaldehyde (v/v) or in formalin fixative for 24 h at 4°C and embedded in paraffin and then cut into 7 μm sections. Sections were stained using specific antibodies and the avidin–biotin immunoperoxidase detection method. Endogenous peroxidase activity was quenched by pretreatment with 3% (v/v) hydrogen peroxide in methanol for 20 min. For endothelial immunohistochemistry detection, CD31 antibody (MEC13.3, BD Pharmingen) was incubated for 2 h at room temperature. The tissue sections were subsequently washed three times with PBS and incubated with biotinylated rabbit anti-rat IgG (1:250 dilution in blocking solution; Sigma-Aldrich, Saint-Quentin Fallavier, France) for 1 h at room temperature. After three PBS washes, the slides were incubated with an avidin: biotin complex (Vectastain ABC kit; Vector Laboratories, Burlingame, CA) for 45 minutes. After a final PBS wash, the immunoreactive proteins were visualized after the addition of 3,3′-diaminobenzidine (Dako, Trappes, France) for 2 min and then counterstained with hematoxylin. Control sections were treated without primary antibody.

Data set [1] concerns HUVEC cells. The data set can be described thus: 3H-thymidine incorporation, HUVEC. In kind it is cell-based, human. The following applies: mitomycin C-treated cells vs untreated, data not shown. How it is done: Cells were treated with molecules in complete medium. After 22 h, 1 μCi per well H^3 thymidine was added for 2 hours. Cells are then fixed by 10% trichloroacetic acid and harvested with 0.2N NaOH, 1% SDS. Radioactivity was measured in a beta counter.
(Incorporation of labelled thymidine or its analogues reports DNA synthesis.)

In data set [2] the test system is HUVEC cells. The data set can be described thus: Scratch assay on HUVEC with or without mitomycin C. In kind it is cell-based, human. The settings on record: HUVEC pretreated 24 h with 2 μg/mL mitomycin C. How it is done:
Confluent cell monolayers were wounded with a plastic pipet tip, washed gently with phosphate buffer saline (PBS) and treated with complete media containing molecules, as indicated. Cells were placed at 37°C into the incubator and photographed at indicated times. Quantitation of closure of the monolayer was performed using the NIH Image J program (http://rsbweb.nih.gov/ij/). Results are expressed as percentage of wound closure at t = 24 h as compared to the initial wound at t = 0 h. […]
www.impactjournals.com/oncotarget/ Oncotarget, Supplementary Materials 2015 […]
Figure S1: Effect of COB223 on endothelial cell migration. (A) Scratch assay: Confluent HUVEC cells were pretreated for 24 h without (CTL) or with 2 μg/mL of mitomycin C before a wound was made in the cell monolayer. After wounding, cells were incubated at 37°C in the absence or the presence of 25 μM COB223. Wound closure was measured after 24 h and 48 h of incubation as described in Material and Methods. […]
(B) Boyden chamber assay: The technique is described in Material and Methods. We measured the passage of fluorescently labeled HUVEC cells through a 3 μm-porous membrane in response to fetal calf serum used as a chemo-attractant. […] The Figure represents the mean fluorescence ± SD of duplicate determinations after 24 h or 48h of incubation from two independent experiments. […]

`CN(C)c1cccc2c(S(=O)(=O)NCCOCCOCCNS(=O)(=O)c3cccc4c(N(C)C)cccc34)cccc12` [COB295, 5-Dimethylamino-N-(2-[2-{2-(5-(dimethylamino)naphthalene-1-sulfonamido)ethoxy}ethoxy]ethyl)naphthalene-1-sulfonamide]: the IC50 in the data set on HMEC-GFP cells stood at 5 µM. Besides, the water solubility result in “Water solubility” is on record as “lack of water solubility”.
In the case of `CC(C)(C)OC(=O)NCCCN1CCN(CCCN2C(=O)c3cccc4cccc(c34)C2=O)CC1` [COB227, N-{3-[4-(3-tert-Butoxycarbonylaminopropyl)piperazin-1-yl]propyl}-1,8-naphthalimide], the IC50 with 3T3-GFP cells amounted to 250 µM; in the data set on HMEC-GFP cells it was 18 µM. Also, in the data set on LLC/2 tumor, the “effect on in vivo LLC/2 tumor growth” value is “no inhibition”.
In the case of `CO[C@@]12[C@H](COC(N)=O)C3=C(C(=O)C(C)=C(N)C3=O)N1C[C@@H]1N[C@@H]12` [mitomycin C, reference compound], the 3H-thymidine incorporation entry with HUVEC cells [1] is “complete inhibition”. In addition, the wound healing result in the data set on HUVEC cells [2] was “slowed down”.
As for `CN(C)c1cccc2c(S(=O)(=O)NCCCNS(=O)(=O)c3cccc4c(N(C)C)cccc34)cccc12` [Compound 05-06-F11, 1,3-bis [5-(Dimethylamino)naphthalene-1-sulfonamido] diaminopropane], the melting point is 90 °C. Besides, 40 µM corresponded to half-maximal inhibition with 3T3-GFP cells (IC50). Half-maximal inhibition in the data set with HMEC-GFP cells (IC50) was put at 15 µM. For the same molecule, the water solubility entry in the data set “Water solubility” is given as “lack of water solubility”.

As a reminder, the IC50 is the concentration that gives 50% inhibition. Read a high IC50 as weaker potency. As a reminder, the melting point is the temperature, or range, at which the solid turns liquid.
